{"source": "patent US7507411B2", "about": "“Attenuated influenza NS1 variants” (University of Saskatchewan, priority 2006, dated 2009)", "key": {"[1]": {"tested_on": "p85 subunit of PI3K", "assay_type": "binding, human"}, "[2]": {"tested_on": "PI3K/Akt", "assay_type": "cell-based, human"}, "[3]": {"tested_on": "SH3, SH2C and SH2N domains of the p85 subunit of PI3K", "assay_type": "binding"}}}
{"substance": "NS1: Wild-type nonstructural protein 1 of influenza A H1N1 Puerto Rico/8/34 (SEQ ID NO:2)", "values": [{"measurement": "precipitation of NS1 by p85 antibody", "setting": "[1]", "result": "did precipitate NS1 protein"}, {"measurement": "Akt phosphorylation in NS1 expressing cells compared with vector", "setting": "[2]", "result": "greater degree of Akt phosphorylation"}, {"measurement": "interaction of NS1 alone with SH2C domain of p85", "setting": "[3]", "result": "interacted"}, {"measurement": "interaction of NS1 alone with SH3 domain of p85", "setting": "[3]", "result": "interacted"}, {"measurement": "interaction of NS1 with SH2C domain of p85", "setting": "[3]", "result": "precipitated NS1"}, {"measurement": "interaction of NS1 with SH3 domain of p85", "setting": "[3]", "result": "precipitated NS1"}]}
